For orientation: IC50 means the concentration needed to halve the response being measured.

For this assay, the system named is mos-CHIK-VRPs. Nature of the assay: VRP-based antiviral drug assay (luciferase) on Vero cells. It counts as cell-based, CHIKV. As to conditions: Chikungunya virus, Vero cells, 2,500 IU VRPs/well, 1 hour + 5 hours at 34° C., read-out: IC50 of inhibition of VRP infection. Here is the method: Luciferase activity in the mos-CHIK-VRPs infected Vero cells was measured using a commercial luciferase assay kit (Promega) in accordance with the manufacturer's instructions. Signals reflecting the luciferase activity was read by a microplate reader (BioTek).
Suramin and 6-azauridine (6-AU) (both from Sigma-Aldrich) were dissolved in water to prepare the stock solutions (suramin, 50 mg/ml, 35 mM; 6-AU, 50 mg/ml, 200 mM) and then stored at −20° C. until use. Vero cells were seeded at a density of 1.5×10^4 cells/well (96 well white/clear bottom plate), and then infected with 2,500 IU VRPs/well in the presence of serially diluted suramin or 6-AU in MEM for 1 hour at 34° C. The suramin- or 6-AU-treated cells were then grown in a 5% FBS medium containing the corresponding concentrations of suramin or 6-AU for another 5 hours at 34° C., then VRP activity was measured by luciferase assay.

As to `Cc1ccc(C(=O)Nc2ccc(S(=O)(=O)O)c3cc(S(=O)(=O)O)cc(S(=O)(=O)O)c23)cc1NC(=O)c1cccc(NC(=O)Nc2cccc(C(=O)Nc3cc(C(=O)Nc4ccc(S(=O)(=O)O)c5cc(S(=O)(=O)O)cc(S(=O)(=O)O)c45)ccc3C)c2)c1` [suramin], the IC50 is 81.3 µM.

For `O=c1cnn([C@@H]2O[C@H](CO)[C@@H](O)[C@H]2O)c(=O)[nH]1` [6-AU, 6-azauridine], the IC50 turned out to be 1.29 µg/mL.

(Values after US20240277790A1, “RECOMBINANT BACULOVIRUSES, ALPHAVIRUS VIRUS-LIKE REPLICON PARTICLES PRODUCED THEREOF AND THEIR USES” (priority 2023, published 2024).)
